Experimental findings from patent US20200346957A1, “BIOFILM […] TO MICROBIAL DESTRUCTION” (DRIPPING WET WATER, INC., priority 2019, published 2020) are described below.

This assay concerns biofilm within an infected cut. Description: Chlorine dioxide disrupts biofilm within an infected cut (Example 4). Format: in vivo. The settings on record: retreated every 12 hours, after 36 hours. How it is done: FIGS. 3A, 3B, 3C, and 3D are photographs that show the progression of an infected cut at 0 hours, 12 hours, 24 hours, and 36 hours, respectively.
FIGS. 4A, 4B, 4C, and 4D are photographs that show the progression of an infected cut at 0 hours, 12 hours, 24 hours, and 36 hours, respectively.
Chlorine Dioxide and CURAD Antibacterial Bandages (benzalkonium chloride) are used in this example. The first of two infected cuts is exposed to 100 ppm of chlorine dioxide for 1 minute before the benzalkonium chloride bandage is applied. The second infected cut is not exposed to chlorine dioxide before the benzalkonium chloride bandage is applied. Both cuts are retreated every 12 hours. […] FIG. 4 illustrates that after 36 hours the second cut's infection, not treated with chlorine dioxide, actually increases.

As for `[O][Cl+][O-]` [chlorine dioxide], the “progress of the cut's infection (FIG. 3)” value (infected cut exposed to 100 ppm chlorine dioxide for 1 minute before benzalkonium chloride bandage) is reported as “significantly reduced”. As to benzalkonium chloride, the “progress of the cut's infection (FIG. 4)” value (infected cut with benzalkonium chloride bandage only, no chlorine dioxide) was “no apparent effect”.
